Measured values taken from patent publication US4845122A, “Anti-allergy treatment using 2-(substituted amino)-4,5-dihydro-4-oxo-3-furancarboxylic acids and derivatives thereof” (priority 1986, dated 1989).

Experiments:
Format in all cases: in vivo
histamine [1] = assay: rat dermal vascular permeability test (mediator release model), histamine challenge; conditions: 100 mg/kg, histamine 20 ug/ml intradermal
Method: The furanone compounds listed in Tables 1A, 1B and 2 were used for anti-allergy treatment in the rat active anaphylaxis model and/or the rat dermal vascular permeability test (mediator release model). The results are given as the percent inhibition from the control.
In the rat dermal vascular permeability test, groups of ten male rats are intraperitoneally or perorally administered either the test compound, at a dosage of 100 mg/kg of rat weight as a 0.85% solution in saline, or the positive reference standard cyproheptadine (1 mg/kg) one hour prior to an intravenous injection of 1 ml of a 0.5% solution of Evan's blue dye into naive animals. Ten minutes later the animals are challenged by intradermally injecting 0.1 ml of a solution of either serotonin (1 ug/ml), histamine (20 ug/ml) or bradykinin (10 ug/ml) into separate sites on the back. Five minutes following challenge the animals are killed, the skin retracted, and the mean diameter of the blue wheal and flare reactions are determined. The percent inhibition of the wheal reaction is calculated as the difference in diameter between the saline control and drug treated groups divided by the control diameter times 100. Statistical analysis of the data is done using the poolt program.

bradykinin = assay: rat dermal vascular permeability test (mediator release model), bradykinin challenge; conditions: 100 mg/kg
serotonin = assay: rat dermal vascular permeability test (mediator release model), serotonin challenge; conditions: 100 mg/kg
edema = assay: rat active anaphylaxis model (paw edema after bovine serum albumin challenge); conditions: 100 mg/kg intraperitoneally; for Active Anaphylaxis % Inhibition: 1 h before challenge, paw volume 90 min post challenge
Method: In the rat active anaphylaxis model, groups consisting of 15-20 male rats are intraperitoneally sensitized on day zero with 500 ug of bovine serum albumin-absorbed alum admixed with 2×10^10 killed Bordatella pertussis vaccine organisms. […] The paw volume is measured using a mercury plethysmometer prior to drug administration and 90 minutes post antigenic challenge. The percent inhibition of edema is calculated as the difference in volume between the control and drug treated groups divided by the control volume times 100. The positive control drug, theophylline (90 mg/kg, po) is included in each assay. Statistical analysis of the data is done using the poolt program.

histamine [2] = assay: rat dermal vascular permeability test (mediator release model), histamine challenge; conditions: topical, 100 mg/kg
[3] = peroral, serotonin 1 ug/ml intradermal
[4] = intraperitoneal administration, bradykinin 10 ug/ml intradermal
[5] = intraperitoneal administration, serotonin 1 ug/ml intradermal

Compound | % Inhibition of Mediator Release, Histamine (histamine [1]; peroral) [%] | % Inhibition of Mediator Release, Bradykinin (bradykinin; topical) [%] | % Inhibition of Mediator Release, Serotonin (serotonin; [3]) [%] | Active Anaphylaxis % Inhibition (edema) [%] | also measured
CCOC(=O)C1=C(N[C@@H]2C[C@H]2c2ccccc2)OCC1=O (relative stereo) | 35 | 59 | 57 |  | 
CCOC(=O)C1=C(N[C@@H]2C[C@H]2c2ccc(Cl)cc2)OCC1=O (relative stereo) | 60 | 76 | 51 |  | 
Cc1ccc([C@@H]2C[C@H]2NC2=C(C(=O)O)C(=O)CO2)cc1 (relative stereo) | 100 | 100 | 100 | 45 | 
O=C(O)C1=C(N[C@@H]2C[C@H]2c2ccc(Cl)cc2)OCC1=O (relative stereo) | 56 | 71 | 54 | 6 | 
O=C(O)C1=C(N[C@@H]2C[C@H]2c2ccccc2)OCC1=O (relative stereo) |  |  |  | 22 | 
CCOC(=O)C1=C(O)COC1=Nc1ccc(Br)cc1 [K C6 H4 Br--4 C2 H5] |  |  |  | 38 | % Inhibition of Mediator Release, Histamine (histamine [1]; intraperitoneal administration): 65%; % Inhibition of Mediator Release, Bradykinin (bradykinin; [4]): 69%; % Inhibition of Mediator Release, Serotonin (serotonin; [5]): 46%
CCOC(=O)C1=C(O)COC1=Nc1cccc(C)c1 [K C6 H4 CH3 --3 C2 H5] |  |  |  |  | % Inhibition of Mediator Release, Histamine (histamine [1]; intraperitoneal administration): 71%; % Inhibition of Mediator Release, Bradykinin (bradykinin; [4]): 70%; % Inhibition of Mediator Release, Serotonin (serotonin; [5]): 75%
CCOC(=O)C1=C(O)COC1=Nc1ccc(C(C)=O)cc1 [K C6 H4 COCH3 --4 C2 H5] |  |  |  | 56 | % Inhibition of Mediator Release, Histamine (histamine [1]; intraperitoneal administration): 88%; % Inhibition of Mediator Release, Bradykinin (bradykinin; [4]): 86%; % Inhibition of Mediator Release, Serotonin (serotonin; [5]): 79%
CCOC(=O)C1=C(O)COC1=Nc1cccc([N+](=O)[O-])c1 [K C6 H4 NO2 --3 C2 H5] |  |  |  | 37 | % Inhibition of Mediator Release, Histamine (histamine [1]; intraperitoneal administration): 49%; % Inhibition of Mediator Release, Bradykinin (bradykinin; [4]): 67%; % Inhibition of Mediator Release, Serotonin (serotonin; [5]): 45%
CCOC(=O)C1=C(O)COC1=Nc1ccccc1OC [K C6 H4 OCH3 --2 C2 H5] |  |  |  | 58 | 
CCOC(=O)C1=C(O)COC1=Nc1ccccc1 [K C6 H5 C2 H5, Potassium 2,5-dihydro-3-ethoxycarbonyl-2-(phenylimino)-4-furanyloxide] |  |  |  | 49 | % Inhibition of Mediator Release, Histamine (histamine [1]; intraperitoneal administration): 31%; % Inhibition of Mediator Release, Bradykinin (bradykinin; [4]): 51%; % Inhibition of Mediator Release, Serotonin (serotonin; [5]): 42%
COc1ccc(NC(=O)C2=C(Nc3ccc(OC)cc3)OCC2=O)cc1 [NH6 H4 OCH3 4 H H C6 H4 OCH3 4] |  | 39 |  |  | % Inhibition of Mediator Release, Histamine (histamine [2]): 8%; % Inhibition of Mediator Release, Serotonin (serotonin; topical): 13%
Cc1ccccc1NC(=O)C1=C(Nc2ccccc2C)OCC1=O [NHC6 H4 CH3 2 H H C6 H4 CH3 2] | 0 | 7 | 9 |  | 
O=C1COC(Nc2ccc(Cl)cc2)=C1C(=O)Nc1ccc(Cl)cc1 [NHC6 H4 Cl4 H H C6 H4 Cl4] | 15 | 44 | 14 |  | 
COc1ccccc1NC(=O)C1=C(Nc2ccccc2OC)OCC1=O [NHC6 H4 OCH3 2 H H C6 H4 OCH3 2] | 1 | 39 | 18 |  | 
O=C1COC(Nc2ccccc2)=C1C(=O)Nc1ccccc1 [NHC6 H5 H H C6 H5, 4,5-Dihydro-4-oxo-N-phenyl-2-(phenylamino)-3-furancarboxamide] |  |  |  | 46 | 
CCOC(=O)C1=C(Nc2ccccc2)OC(C)(C)C1=O [OC2 H5 CH3 CH3 C6 H5, ethyl 4,5-dihydro-5,5-dimethyl-4-oxo-2-(phenylamino)-3-furancarboxylate] |  |  |  | 16 | 
CCOC(=O)C1=C(Nc2cccc(C(F)(F)F)c2)OCC1=O [OC2 H5 H H C6 H4 CF3 --3] | 4.1 | 40 | 9.7 |  | 
CCOC(=O)C1=C(Nc2ccc(C(=O)OCC)cc2)OCC1=O [OC2 H5 H H C6 H4 CO2 C2 H5 --4, ethyl 2-[[4-(ethoxycarbonyl)phenyl]-amino]-4,5-dihydro-4-oxo-3-furancarboxylate] | 21 | 21 | 18 |  | 
CCOC(=O)C1=C(Nc2ccc(Cl)cc2)OCC1=O [OC2 H5 H H C6 H4 Cl--4] | 3.3 | 9.5 | 6.6 |  | 
CCOC(=O)C1=C(NC)OCC1=O [OC2 H5 H H CH3] |  |  |  |  | % Inhibition of Mediator Release, Histamine (histamine [1]; intraperitoneal administration): 50%; % Inhibition of Mediator Release, Bradykinin (bradykinin; [4]): 25%; % Inhibition of Mediator Release, Serotonin (serotonin; [5]): 38%
CC1(C)OC(Nc2ccccc2)=C(C(=O)O)C1=O [OH CH3 CH3 C6 H5] |  |  |  | 44 | 
CC1OC(Nc2ccccc2)=C(C(=O)O)C1=O (stereo not drawn) [OH H CH3 C6 H5] |  |  |  | 60 | % Inhibition of Mediator Release, Histamine (histamine [1]; intraperitoneal administration): 40%; % Inhibition of Mediator Release, Bradykinin (bradykinin; [4]): 46%; % Inhibition of Mediator Release, Serotonin (serotonin; [5]): 37%
O=C(O)C1=C(Nc2ccc(Br)cc2)OCC1=O [OH H H C6 H4 Br--4] | 45 | 68 | 39 | 27 | 
O=C(O)C1=C(Nc2cccc(C(F)(F)F)c2)OCC1=O [OH H H C6 H4 CF3 --3] | 26 | 54 | 40 | 45 | 
O=C(O)C1=C(Nc2ccc(C(=O)O)cc2)OCC1=O [OH H H C6 H4 CO2 H--4, 2-[(4-Carboxyphenyl)amino]-4,5-dihydro-4-oxo-3-furancarboxylic Acid] | 64 | 64 | 63 | 52 | 
O=C(O)C1=C(Nc2cccc([N+](=O)[O-])c2)OCC1=O [OH H H C6 H4 NO2 --3] | 16 | 48 | 18 |  | Active Anaphylaxis % Inhibition (footnote 1: edema increased) (edema; edema increased): 39%
COc1ccccc1NC1=C(C(=O)O)C(=O)CO1 [OH H H C6 H4 OCH3 --2] | 27 | 38 | 30 | 45 | 
O=C([O-])C1=C(Nc2ccccc2)OCC1=O.[Na+] [O^- Na^+ H H C6 H5, 4,5-dihydro-4-oxo-2-phenylamino-3-furancarboxylic acid sodium salt] |  |  |  | 17 | 
